Legend:
[1] = system: leukocytes (WBC); assay: Cyclophosphamide-induced leukopenia in mice: leukocytes (WBC); type: in vivo, Kunming mice; conditions: Experimental Example 2, 0.8 mg/kg; for leukocytes (WBC), Day1 after modeling: CY 100 mg/kg x 3 days
Procedure: Further, in vivo experiments were carried out on the compounds involved in the present invention using animal models of cyclophosphamide-induced leukopenia in mice. Experimental methods are briefed as follows: Healthy Kunming mice, of which half were male and the other half were female, were divided into groups, each group incuding 18 mice, and those mice weighing 18-22 g were selected and divided into groups randomly according to their body weights. Each group was given a different drug, wherein the negative control group and model control group were given physiological saline of the same volume, and the positive control group was treated with granulocyte colony-stimulating factors 40 μg/kg through subcutaneous injection (injection volume: 0.1 ml/10 g). After administration for 3 days, except the negative control group, other treatment groups were treated with 100 mg/kg cyclophosphamide (CY) through lumbar injection once a day for three days to cause a decrease of leukocytes in mice. A drop of blood (20 μl) was taken from posterior orbital venous plexus to detect the hemogram to observe the situation of leukocytes and platelets on day 1, day 3 and/or day 5 after the final lumbar injection of cyclophosphamide (i.e day 1, day 3 and/or day 5 after modeling) (Note: Each treatment group was administrated incessantly). The mice were killed on day 5 after the final lumbar injection of cyclophosphamide (i.e day 5 after modeling), and the leukocytes (WBC) and platelets (PLT) of the hemogram index were counted.
This experiment mainly studies the effect of G-1, G-6 and G-8 of ursolic acid saponin in increasing leukocytes, and compares the therapeutic effects of aglycon of ursolic acid and oleanolic acid and of the compound G-22 which has been disclosed by a patent.
The purpose of this experiment is to study the effect of G-1, G-3, G-11 and G-12 of ursolic acid saponin and oleanolic acid saponin in increasing platelets, and to observe whether G-11 and G-12 of oleanolic acid saponin have an effect in increasing leukocytes.

[2] = system: bone marrow mononuclear cell (BMMNC); assay: Monocytic proliferation in bone marrow of mice cultured in vitro (SRB method); type: cell-based, KunMing mice; conditions: 1 μg/ml; cultured 5 days; versus blank control
Excerpt: 15-20 KunMing mice (purchased from Laboratory Animal Center of Zhengzhou University, Henan) of either sex were killed by cervical vertebral dislocation. Bilateral thighbones were isolated and caput femoris was cut off. The marrow was washed repeatedly with serum-free RPMI1640 (Gibco Corp.), the wash solution containing marrow cells was collected, sucked and blew repeatedly with a pipette to make the cells disperse. After standing for a moment, the supernatant was sucked up and centrifugated at 100 g for 3 min to collect the cell pellet. The cells were resuspended in a culture media and brought to a volume of 5 ml. The cell suspension was added to the upper layer of a centrifugal tube containing 5 ml of a lymphocyte separation medium of mice and centrifugated at 400 g for 30 min. The milk-white bone marrow mononuclear cell (BMMNC) layer in the middle of the interface was collected and washed with serum-free medium RPMI1640 for three times to obtain a BMMNC suspension, which was inoculated into a 96-well plate at forty thousand per well after counting. Positive drugs rhG-CSF (recombinant granulocyte colony-stimulating factor, manufactured by QI LU Pharmaceutical Co., LTD., Shandong) or test samples of different concentrations were added, and meanwhile a blank control group without drug was established. They were cultured in a 5% CO2 incubator at 37 for 5 days. Cell proliferation was measured by a conventional SRB (Sigma) method in which OD at 490 nm was measured after being dyed with SRB. The growth rates of cell proliferation after drug treatment were calculated (Growth rate of cell proliferation=experimental group-blank control group/blank control group*100%).

[3] = system: leucocytes; conditions: administrated through abdominal cavity; 25, 50 and 100 mg/kg; effect obvious at high dose; cited from earlier work

Row | Compound | effect in increasing leukocytes (in words) [1] | leukocytes (WBC), Day 3 after modeling [1] | leukocytes (WBC), Day 5 after modeling [1] | leukocytes (WBC), Day1 after modeling [1] | Growth Rate of Proliferation %, 1 μg/ml [2] [%] | effect in increasing leucocytes (in words) [3]
1 | CC1(C)CC[C@]2(C(=O)O)CC[C@]3(C)C(=CC[C@@H]4[C@@]5(C)CC[C@H](O)C(C)(C)[C@@H]5CC[C@]43C)[C@@H]2C1 [Sample G-20, oleanolic acid] | no obvious effect in increasing leukocytes | 3.88 ± 2.01 | 7.00 ± 3.22 | 0.99 ± 0.40 | 4.5 | effective in increasing leucocytes
2 | C[C@H]1[C@H](C)CC[C@]2(C(=O)O)CC[C@]3(C)C(=CC[C@@H]4[C@@]5(C)CC[C@H](O)C(C)(C)[C@@H]5CC[C@]43C)[C@H]12 [Sample G-21, ursolic acid] | no obvious effect in increasing leukocytes | 3.94 ± 1.73 | 7.07 ± 3.14 | 1.01 ± 0.47 | 7.9 | effective in increasing leucocytes

Reference: US8394776B2, “Use of ursolic acid saponin,oleanolic acid saponin in preparation of increasing leucocytes and/or platelet medicine” (Chengdu Di'Ao Jiuhong Pharmaceutical Factor, priority 2007, dated 2013)
